Laboratory results taken from patent US20260146264A1, “METHODS FOR REPROGRAMMING AND GENE EDITING CELLS” (Factor Bioscience Inc., priority 2023, published 2026).
“Also recorded” adds a separate entry of the source.

Assays:
[1] = system: pJet promoter; experiment: Reactivation of silenced pJet promoter (GFP expression) during iPSC to iMSC differentiation; assay type: cell-based, human; conditions: 10 μM, 24 hours on day 23 of differentiation, JeT-GFP cells
Text: • 1. Transfect hiPSCs with a chromatin context-sensitive gene editing endonuclease according to some embodiments of the present disclosure, mRNA and single stranded DNA repair templates encoding GFP sequence under JeT (“pJet”) and Ef1a promoters. • 2. Perform gDNA extraction and AAVS1 surveyor PCR to confirm ssDNA repair template integration at AAVS1 locus • 3. Perform single cell sorting to obtain homogeneous cell line started from a single cell • 4. Using Stemdiff™ Mesenchymal Progenitor kit, differentiate iPS cell lines inserted with pJet and Ef1a GFP sequence in their genomes into iMSCs. • 5. Verify robust iMSC differentiation using surface marker expression at the completion of differentiation.
FIG. 16A and FIG. 16B show the tracking of GFP expression under a pJet promoter during iPSC to iMSC differentiation. […] GFP was expressed from day 18 to 30 but was completely silenced on day 33.

[2] = system: COL7A1_e73 gene-editing protein pair USN2 (US2L/US2R D450N) D450N in FokI domain of right protein (D67N of SEQ 80; mutant FokI domain is SEQ 82) (synthetic construct); experiment: cell_activity; conditions: T7E1 assay, primary human fibroblasts; 0.4% in iPSCs; nickase pair, 42.9% relative insertion of dsDNA donor in fibroblasts
[3] = system: COL7A1_e73 gene-editing protein pair US22 (US2L/US2R, wild-type FokI domains) (synthetic construct); experiment: cell_activity; conditions: T7E1 assay, primary human fibroblasts; 9.4% in iPSCs (p667)
[4] = system: COL7A1_e73 gene-editing protein pair USN3 (US2L/US2R D467A) D467A in FokI domain of right protein (D84A of SEQ 80; mutant FokI domain is SEQ 83) (synthetic construct); experiment: cell_activity; conditions: T7E1 assay, primary human fibroblasts; nickase pair
[5] = system: COL7A1_e73 gene-editing protein pair USN1 (US2L/US2R D450A) D450A in FokI domain of right protein (D67A of SEQ 80; mutant FokI domain is SEQ 81) (synthetic construct); experiment: cell_activity; conditions: T7E1 assay, primary human fibroblasts; nickase pair, 58.7% relative insertion of 300 bp dsDNA donor vs 72.3% for US22
[6] = system: Control iMSCs
Protocol: The cytotoxicity of small-molecule IDO1 inhibitors was assessed by flow cytometry after a 48 hour incubation with Control iMSCs. Viability is shown relative to PBS controls.

CC(/C=C/C(=O)NO)=C\[C@@H](C)C(=O)c1ccc(N(C)C)cc1 [Trichostatin A]
GFP expression post TSA treatment [1]: temporary increase in GFP expression | GFP expression post TSA treatment ([1]; listed as TSA): noticeable increase of GFP expression; also recorded: successfully demethylated and reactivated the pJet promoter

COL7A1 exon 73 target site
activity [2]: 3.1 % NHEJ/MMEJ | activity [3]: 61.9 % NHEJ/MMEJ | activity [4]: 11.1 % NHEJ/MMEJ | activity [5]: 4.4 % NHEJ/MMEJ

C[C@@H](NC(=O)c1ccc(F)cc1)c1ccc2c(c1)CCN2C(=O)C1CCOCC1 [IDO1-IN-5]
cytotoxicity (viability relative to PBS controls) [6]: mild cytotoxicity

NS(=O)(=O)NCCNc1nonc1C(=NO)Nc1ccc(F)c(Br)c1 [Epacadostat]
cytotoxicity (viability relative to PBS controls) [6]: no significant difference relative to PBS
